The record followed here is PubChem BioAssay (NCI).

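Values below derive from 48-hour exposures of cells grown in 96-well plates, with endpoints linearly interpolated between the two concentrations bracketing the appropriate inhibition level. At the GI50, growth is halved. Definition used: TGI = concentration required for complete inhibition of growth.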 Where only a bound is given, the exact number is not on record here.

Some test systems named below: NCI-H226 lung; MOLT-4 leukemia; SK-OV-3 ovarian; SF-268 CNS; RPMI-8226 leukemia; SW-620 colon; KM12 colon; HCC-2998 colon; EKVX NSCLC; HOP-92 NSCLC.
Common to all, as to experiment: DTP human tumour cell line panel, 48 h

One may read the GI50 as the concentration giving 50% growth inhibition. As usually defined, the TGI is the concentration giving total growth inhibition. As for `O=C(Nc1cccc(-n2cc(-c3ccncc3)c(-c3cc(O)cc(Cl)c3)n2)c1)c1ccc(N2CCOCC2)c(C(F)(F)F)c1`, the GI50 was 28500 nM in the experiment on NCI-H226 lung; 1110 nM with MOLT-4 leukemia; 9630 nM in the experiment with SK-OV-3 ovarian; 8510 nM with SF-268 CNS; 398 nM in the experiment on RPMI-8226 leukemia; 2830 nM with SW-620 colon. Besides, the GI50 was 1210 nM in the experiment on KM12 colon and 1820 nM in the experiment on HCC-2998 colon. For the same compound, the TGI is above 100000 nM with NCI-H226 lung; 4380 nM with MOLT-4 leukemia; above 100000 nM with SK-OV-3 ovarian; above 100000 nM with SF-268 CNS; 2310 nM in the experiment with RPMI-8226 leukemia; 7060 nM in the experiment on SW-620 colon. Also, the TGI in the experiment on KM12 colon was above 100000 nM; in the experiment on HCC-2998 colon it was 7950 nM.

In the case of `O=C1NC2=C(CCCCC/C2=N\O)C12CCCCCC2`, the TGI with EKVX NSCLC, in the experiment on MOLT-4 leukemia, with SK-OV-3 ovarian, in the experiment on SF-268 CNS, in the experiment on RPMI-8226 leukemia and in the experiment on SW-620 colon was above 100000 nM in each case. Further, the total growth inhibition concentration (TGI) with HOP-92 NSCLC and in the experiment with KM12 colon was above 100000 nM each time.

As to `CCN(CC)CCCNc1ccc(C)c2sc3ccccc3c(=O)c12`, the GI50 with EKVX NSCLC was 2160 nM; in the experiment on MOLT-4 leukemia, 384 nM; in the experiment with SK-OV-3 ovarian it was 1510 nM; in the experiment on SF-268 CNS it was 1310 nM; in the experiment on RPMI-8226 leukemia, 330 nM; in the experiment with SW-620 colon it was 393 nM. The GI50 in the experiment with HOP-92 NSCLC was 1960 nM; with KM12 colon it was 1110 nM; with HCC-2998 colon, 488 nM. Further, the total growth inhibition concentration (TGI) with EKVX NSCLC worked out at 7650 nM; with MOLT-4 leukemia, 1350 nM; in the experiment with SK-OV-3 ovarian, 4820 nM; in the experiment with SF-268 CNS it was 3740 nM; in the experiment on RPMI-8226 leukemia it was 1340 nM; with SW-620 colon, 1510 nM. Besides, the TGI in the experiment on HOP-92 NSCLC amounted to 16200 nM; in the experiment with KM12 colon, 2740 nM; with HCC-2998 colon it was 1770 nM.

For the compound `COCC([C@@H](O)C(O)C(=O)NCC[C@@H](C)c1nc(/C=C/CC2OC3(C[C@H](O)C2C)OC(C(C[C@H](O)C(C)[C@H](O)C(C)/C=C(C)/C(C)=C/C=C/C(C)=C/C#N)OC)[C@@H](OP(=O)(O)O)C3(C)C)co1)N(C)C` (stereo partly drawn), the TGI worked out at 0.326 nM in the experiment with EKVX NSCLC; 0.282 nM with NCI-H226 lung; 2.48 nM with MOLT-4 leukemia; 1.54 nM with SK-OV-3 ovarian; 0.344 nM in the experiment on SF-268 CNS; 0.327 nM with SW-620 colon. Besides, the values for the total growth inhibition concentration (TGI) in the experiment with HOP-92 NSCLC, in the experiment with KM12 colon and in the experiment with HCC-2998 colon were 0.316 nM, 0.331 nM and 0.325 nM, respectively.

For `CCCCCOc1ccc(/C=N/Nc2cc(C)nc3ccc(Cl)cc23)cc1`, the GI50 with EKVX NSCLC was 1670 nM; in the experiment on NCI-H226 lung, 1640 nM; with MOLT-4 leukemia it was 1650 nM; in the experiment with SK-OV-3 ovarian it was 1650 nM; in the experiment with SF-268 CNS it was 2230 nM; in the experiment on SW-620 colon, 1730 nM. The figures for the GI50 with HOP-92 NSCLC, in the experiment with KM12 colon and with HCC-2998 colon were 1470 nM, 1790 nM and 1950 nM, respectively. The TGI in the experiment with EKVX NSCLC was found to be 3070 nM; in the experiment with NCI-H226 lung it was 3680 nM; with MOLT-4 leukemia, 3360 nM; in the experiment with SK-OV-3 ovarian, 3080 nM; with SF-268 CNS, 4460 nM; in the experiment on SW-620 colon it was 3530 nM. Besides, the values for the TGI in the experiment with HOP-92 NSCLC, with KM12 colon and with HCC-2998 colon were 2960 nM, 3410 nM and 3540 nM, respectively.

On to `O=[N+]([O-])c1ccc(Cl)c2c([N+](=O)[O-])cccc12`, for which the concentration for total growth inhibition (TGI) in the experiment on EKVX NSCLC was above 10000 nM; in the experiment on MOLT-4 leukemia it was above 10000 nM; in the experiment with SK-OV-3 ovarian, 7480 nM; in the experiment on SF-268 CNS, above 10000 nM; in the experiment on RPMI-8226 leukemia it was above 10000 nM; in the experiment on SW-620 colon it was above 10000 nM. Also, the TGI in the experiment on HOP-92 NSCLC, with KM12 colon and in the experiment with HCC-2998 colon was above 10000 nM in each case.

With `CNCc1cccc2c1OCCOCCOCCN(C)S(=O)(=O)c1ccc(cc1)-c1cnc(N)c(n1)C(=O)N2`, the GI50 is 2830 nM in the experiment on EKVX NSCLC; 2760 nM with NCI-H226 lung; 410 nM in the experiment on MOLT-4 leukemia; 389 nM with SK-OV-3 ovarian; 1750 nM with SF-268 CNS; 4390 nM in the experiment on RPMI-8226 leukemia. For the same compound, the GI50 is 1660 nM in the experiment with SW-620 colon, 2290 nM with KM12 colon and 15500 nM in the experiment with HCC-2998 colon. For the same compound, the total growth inhibition concentration (TGI) in the experiment with EKVX NSCLC worked out at 12700 nM; with NCI-H226 lung, 6920 nM; in the experiment with MOLT-4 leukemia, 11800 nM; with SK-OV-3 ovarian it was 12800 nM; with SF-268 CNS it was 5810 nM; with RPMI-8226 leukemia it was 31000 nM. Further, the TGI in the experiment with SW-620 colon is 4250 nM; with KM12 colon, 14600 nM; with HCC-2998 colon, 30300 nM.

In the case of `CCN(C)c1nc(N(C)CC)c2nc(N(C)CC)nc(N(C)CC)c2n1`, the TGI in the experiment with EKVX NSCLC, with MOLT-4 leukemia, in the experiment with SK-OV-3 ovarian, in the experiment on SF-268 CNS, in the experiment on RPMI-8226 leukemia and in the experiment on SW-620 colon was above 100000 nM throughout. In addition, the TGI in the experiment on HOP-92 NSCLC, in the experiment with KM12 colon and in the experiment with HCC-2998 colon was above 100000 nM each time.

Consider `CCCCCCCCCCCC[N+]1(CCCCCCCCCCCC)CCCC(C)C1` (stereo not drawn), for which the GI50 in the experiment on EKVX NSCLC was 269 nM; in the experiment with SF-268 CNS, 293 nM; with SW-620 colon, 303 nM; in the experiment on HCC-2998 colon it was 303 nM. For the same compound, the TGI with EKVX NSCLC was 1650 nM; with SF-268 CNS it was 1250 nM; in the experiment on SW-620 colon it was 1330 nM; in the experiment on HCC-2998 colon, 1380 nM.

Take `COc1cc(CNc2nc3cc(N)cc(N)c3nc2-c2ccccc2)cc(OC)c1`: the GI50 in the experiment with EKVX NSCLC is 2800 nM; in the experiment on MOLT-4 leukemia, 3020 nM; with SK-OV-3 ovarian, 15100 nM; in the experiment with SF-268 CNS, 5320 nM; with SW-620 colon, 4450 nM; in the experiment on HOP-92 NSCLC, 1150 nM. Further, the GI50 in the experiment with KM12 colon is 4280 nM. The total growth inhibition concentration (TGI) with EKVX NSCLC was 8910 nM; in the experiment with MOLT-4 leukemia it was above 100000 nM; with SK-OV-3 ovarian it was 54200 nM; in the experiment on SF-268 CNS, above 100000 nM; in the experiment with RPMI-8226 leukemia, 6220 nM; in the experiment with SW-620 colon it was above 100000 nM. In addition, the TGI is 3310 nM with HOP-92 NSCLC and 73300 nM with KM12 colon.
